Test results from ChEMBL document CHEMBL4806956, “1-heteroaryl-indoline-4-carboxamides as modulators of gpr52 useful for the treatment or prevention of disorders related thereto” (2020).
Activity calls are given as the source filed them. The calls are words filed in the database; no cut-off is given here.

Tests used:
[1] = target: G-protein coupled receptor 52 (Mus musculus) (UniProt P0C5J4); assay: In vivo agonist activity at GPR52 in C57BL/6 mouse assessed as inhibition of basal locomotor activity at 10 mg/kg, po measured for 60 mins starting at 15 mins post-drug challenge; assay type: functional, organism-based; conditions: time 75.0 min
[2] = Ratio of drug level in brain to plasma in C57BL/6 mouse at 10 mg/kg, po measured after 60 mins by LC/MS/MS analysis; assay type: ADME, organism-based; conditions: brain and plasma, read-out: BPR
[3] = target: G-protein coupled receptor 52 (Mus musculus) (UniProt P0C5J4); assay: In vivo agonist activity at GPR52 in po dosed C57BL/6 mouse assessed as inhibition of basal locomotor activity measured for 60 mins starting at 15 mins post-drug challenge; assay type: functional, organism-based; conditions: time 75.0 min
[4] = tested on: Rattus norvegicus; assay: Antipsychotic activity in Sprague-Dawley rat assessed as inhibition of MK801-induced disruption of prepulse inhibition at 5 to 20 mg/kg, po administered 15 mins prior to […] and measured after 15 mins; assay type: functional, organism-based; conditions: dose 5-20 mg/kg, time 30.0 min
[5] = Toxicity in Sprague-Dawley rat assessed as inhibition of basal locomotor activity at 20 mg/kg, po; assay type: organism-based; conditions: in vivo
[6] = Induction of hyperprolactinemia in Sprague-Dawley rat assessed as increase in prolactin release in plasma at 1 to 100 mg/kg, po measured after 60 mins by ELISA; assay type: organism-based; conditions: in vivo, 1 h, dose 1-100 mg/kg
[7] = tested on: Rattus norvegicus; assay: Inhibition of haloperidol-induced hyperprolactinemia in Sprague-Dawley rat assessed as reduction in prolactin release in plasma at 10 mg/kg, po administered 30 mins prior to 0.3 mg/kg haloperidol challenge and measured after 60 mins by ELISA; assay type: functional, organism-based; conditions: time 90.0 min
[8] = Ratio of drug level in brain to plasma in C57BL/6 mouse at 3 mg/kg, po measured after 60 mins by LC/MS/MS analysis; assay type: ADME, organism-based; conditions: brain and plasma, read-out: BPR
[9] = tested on: Mus musculus; assay: Antipsychotic activity in 129Sv/Ev mouse assessed as inhibition of MK801-induced disruption of prepulse inhibition at 10 mg/kg, po co-administered with haloperidol at 15 mins prior to MK801 challenge and measured after 15 mins; assay type: functional, organism-based; conditions: time 30.0 min
[10] = tested on: Mus musculus; assay: Increase in PPI in 129Sv/Ev mouse with low PPI at 10 mg/kg, po measured after 30 mins; assay type: functional, organism-based
[11] = Induction of catalepsy in Sprague-Dawley rat assessed as increase in latency to move both forepaws at 5 to 100 mg/kg, po measured after 45 mins; assay type: organism-based; conditions: in vivo, 0.75 h, dose 5-100 mg/kg
[12] = tested on: Rattus norvegicus; assay: Antipsychotic activity in Sprague-Dawley rat assessed as inhibition of amphetamine-induced disruption of prepulse inhibition at 5 to 20 mg/kg, po administered 15 mins prior to amphetamine challenge and measured after 15 mins; assay type: functional, organism-based; conditions: dose 5-20 mg/kg, time 30.0 min
[13] = tested on: Rattus norvegicus; assay: Antipsychotic activity in Sprague-Dawley rat assessed as inhibition of amphetamine-stimulated locomotor activity at 0.5 to 20 mg/kg, po administered 15 mins prior to amphetamine stimulation and measured for 30 to 60 mins post-drug dosage; assay type: functional, organism-based; conditions: dose 0.5-20 mg/kg, time 30-60 min
[14] = Induction of catalepsy in Sprague-Dawley rat assessed as increase in latency to move both forepaws at 0.1 to 1 mg/kg, sc measured after 45 mins; assay type: organism-based; conditions: in vivo, 0.75 h, dose 0.1-1 mg/kg
[15] = Induction of hyperprolactinemia in Sprague-Dawley rat assessed as increase in prolactin release in plasma at 0.1 to 1 mg/kg, po measured after 60 mins by ELISA; assay type: organism-based; conditions: in vivo, 1 h, dose 0.1-1 mg/kg

G-protein coupled receptor 52 (Mus musculus), sequence (P0C5J4 whole entry): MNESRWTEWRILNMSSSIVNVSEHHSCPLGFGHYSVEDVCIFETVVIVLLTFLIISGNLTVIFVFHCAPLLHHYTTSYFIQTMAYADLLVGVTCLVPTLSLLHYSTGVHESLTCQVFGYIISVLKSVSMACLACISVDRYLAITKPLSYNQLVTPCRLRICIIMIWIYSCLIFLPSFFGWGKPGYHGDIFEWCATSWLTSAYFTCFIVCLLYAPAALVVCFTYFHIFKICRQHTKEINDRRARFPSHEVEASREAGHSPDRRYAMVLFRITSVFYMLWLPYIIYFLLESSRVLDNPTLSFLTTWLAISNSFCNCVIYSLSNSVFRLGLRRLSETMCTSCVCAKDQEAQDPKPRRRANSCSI

| SMILES | inhibition [1] [%] | Kp at 1 h [2] | other results |
| --- | --- | --- | --- |
| NC(=O)c1cccc2c1CCN2c1cc(Cc2ccc3occc3c2)ccn1 | 81 | – | – |
| NC(=O)c1cccc2c1CCN2c1cc(Cc2ccc(F)c(C(F)(F)F)c2)ccn1 | 61 | – | – |
| NC(=O)c1cccc2c1CCN2c1cc(Cc2cncc(C(F)(F)F)c2)ccn1 | – | 4.67 | – |
| O=C(NCCO)c1cccc2c1CCN2c1cc(Cc2cc(F)c(F)c(F)c2)ccn1 | 65 | 3 | – |
| COc1ccc(Cc2ccnc(N3CCc4c(C(=O)NC[C@@H](F)CO)cccc43)c2)cc1F | 67 | – | – |
| O=C(NC[C@@H](F)CO)c1cccc2c1CCN2c1cc(Cc2cc(F)c(F)c(F)c2)ccn1 | 70 | 2.85 | – |
| O=C(NCCO)c1cccc2c1CCN2c1cc(Cc2cc(F)cc(Cl)c2)ccn1 | 79 | 5.45 | – |
| O=C(NCCO)c1cccc2c1CCN2c1cc(Cc2cccc(C(F)(F)F)c2)ccn1 | 70 | – | ED50 [3]: 2.7 mg/kg; Activity [4]: Active; Activity [5]: Toxic; Activity [6]: Non-Toxic; inhibition [7]: Active; Kp at 1 h [8]: 3.51; Activity [9]: Active; Activity [10]: Active; Activity [11]: Non-Toxic; Activity [12]: Active; Activity [13]: Active |
| NC(=O)c1cccc2c1CCN2c1cc(Cc2cccc(C(F)(F)F)c2)ccn1 | – | – | Kp at 1 h [8]: 4.49 |
| C[C@@H](O)CNC(=O)c1cccc2c1CCN2c1cc(Cc2cc(F)c(F)c(F)c2)ccn1 | 68 | – | – |
| O=C(NCCO)c1c(F)ccc2c1CCN2c1cc(Cc2cc(F)c(F)c(F)c2)ccn1 | 68 | – | – |
| O=C(NC1CCN(CCO)CC1)c1cccc2c1CCN2c1cc(Cc2ccc3c(c2)CCO3)ccn1 | – | 0.16 | – |
| CC(=O)c1cccc(Cc2ccnc(N3CCc4c(C(N)=O)cccc43)c2)c1 | 72 | 1.36 | – |
| COc1ccc(Cc2ccnc(N3CCc4c(C(=O)NCCO)cccc43)c2)cc1F | – | 0.87 | – |
| COc1ccc(Cc2ccnc(N3CCc4c3ccc(F)c4C(=O)NC[C@@H](F)CO)c2)cc1F | 62 | – | – |
| NC(=O)c1cccc2c1CCN2c1cc(Cc2ccc(F)c(Cl)c2)ccn1 | – | 7.76 | – |
| NC(=O)c1cccc2c1CCN2c1cc(Cc2cc(F)cc(Cl)c2)ccn1 | – | 12.4 | – |
| COc1ccc(Cc2ccnc(N3CCc4c(C(N)=O)cccc43)c2)cc1F | 66 | 6.32 | – |
| COC[C@@H](O)CNC(=O)c1cccc2c1CCN2c1cc(Cc2cc(F)c(F)c(F)c2)ccn1 | 72 | – | – |
| O=C(NCCO)c1c(F)ccc2c1CCN2c1cc(Cc2cccc(C(F)(F)F)c2)ccn1 | – | 1.67 | – |
| O=C(CCCN1CCC(O)(c2ccc(Cl)cc2)CC1)c1ccc(F)cc1 [HALOPERIDOL] | – | – | Activity [14]: Toxic; Activity [15]: Toxic |
